Bounds are passed on as bounds.

NR2B-subtype NMDA receptors, sequence (Q00960 27-1482, other chains not shown): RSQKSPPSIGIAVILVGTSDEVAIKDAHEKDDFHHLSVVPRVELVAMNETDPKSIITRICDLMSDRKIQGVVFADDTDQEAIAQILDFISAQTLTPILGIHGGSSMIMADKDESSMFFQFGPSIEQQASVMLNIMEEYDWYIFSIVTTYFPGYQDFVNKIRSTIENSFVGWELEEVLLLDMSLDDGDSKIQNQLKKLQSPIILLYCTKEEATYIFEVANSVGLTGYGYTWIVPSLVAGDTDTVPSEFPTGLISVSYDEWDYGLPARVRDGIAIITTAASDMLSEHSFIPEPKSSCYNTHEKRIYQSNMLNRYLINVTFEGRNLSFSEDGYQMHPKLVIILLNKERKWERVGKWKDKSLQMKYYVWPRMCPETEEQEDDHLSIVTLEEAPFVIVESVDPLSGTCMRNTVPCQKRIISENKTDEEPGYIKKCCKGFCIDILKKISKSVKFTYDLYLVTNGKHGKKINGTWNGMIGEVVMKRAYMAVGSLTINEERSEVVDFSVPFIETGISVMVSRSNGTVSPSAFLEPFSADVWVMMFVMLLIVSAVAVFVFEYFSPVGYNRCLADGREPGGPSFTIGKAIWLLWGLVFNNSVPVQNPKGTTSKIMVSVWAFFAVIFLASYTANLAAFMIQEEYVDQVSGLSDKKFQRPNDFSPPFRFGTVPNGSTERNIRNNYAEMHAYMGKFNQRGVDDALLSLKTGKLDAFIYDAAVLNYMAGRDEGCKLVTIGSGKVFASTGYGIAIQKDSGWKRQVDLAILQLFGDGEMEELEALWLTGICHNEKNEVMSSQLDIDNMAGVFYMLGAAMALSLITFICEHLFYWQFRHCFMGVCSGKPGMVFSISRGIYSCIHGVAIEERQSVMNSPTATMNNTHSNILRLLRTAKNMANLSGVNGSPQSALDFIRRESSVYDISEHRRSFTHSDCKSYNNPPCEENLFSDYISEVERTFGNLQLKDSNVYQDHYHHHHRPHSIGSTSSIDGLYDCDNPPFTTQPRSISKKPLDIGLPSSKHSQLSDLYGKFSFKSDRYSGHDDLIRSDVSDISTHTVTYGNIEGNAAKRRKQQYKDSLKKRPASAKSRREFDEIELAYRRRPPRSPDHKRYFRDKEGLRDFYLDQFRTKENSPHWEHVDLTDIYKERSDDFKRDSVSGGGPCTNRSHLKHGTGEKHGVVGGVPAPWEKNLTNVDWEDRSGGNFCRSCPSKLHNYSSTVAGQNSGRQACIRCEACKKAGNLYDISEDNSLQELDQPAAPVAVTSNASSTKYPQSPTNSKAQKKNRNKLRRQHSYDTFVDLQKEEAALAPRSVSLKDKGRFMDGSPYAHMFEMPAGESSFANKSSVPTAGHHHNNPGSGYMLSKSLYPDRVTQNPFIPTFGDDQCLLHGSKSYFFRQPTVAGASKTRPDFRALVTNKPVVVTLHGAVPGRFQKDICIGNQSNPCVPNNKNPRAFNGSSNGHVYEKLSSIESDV

The target of the test is NR2B-subtype NMDA receptors (Rattus norvegicus (Rat), UniProt P35439+Q00960). As to the kind of experiment: Radioligand binding assay (3H Ro 25-6981 competition, forebrain membranes). The settings on record: 3H Ro 25-6981 (4 nM), read-out: NR2B Binding Ki. Summed up:
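Rat forebrain membranes competed against [3H]Ro 25-6981 for 1 hr at room temperature, then filtered onto PEI-treated GF/B plates and counted by scintillation. CPM converted to % inhibition, concentration-response curves fitted, Ki derived from at least two experiments.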
For the molecule `O=C1C(N2CCC(c3ccc(O)cc3)C(F)(F)C2)CCN1Cc1ccc(F)c(F)c1` (stereo not shown) [Example 97, 3-(3,3-Difluoro-4-(4-hydroxyphenyl)piperidin-1-yl)-1-(3,4-difluorobenzyl)pyrrolidin-2-one], the inhibitory constant (Ki) came to 45 nM.

`O=C1[C@H](N2CC[C@H](c3ccc(O)cc3)[C@@H](F)C2)CCN1Cc1ccccc1` [Example 75, (R)-1-Benzyl-3-((3R,4R)-3-fluoro-4-(4-hydroxyphenyl)-piperidin-1-yl)pyrrolidin-2-one]: the inhibition constant Ki was 8 nM.

Regarding `O=C1C(N2CC[C@H](c3ccc(O)cc3)[C@@H](F)C2)CCN1Cc1ccc(F)c(F)c1` (stereo partly drawn) [Example 85, 1-(3,4-Difluorobenzyl)-3-((3R,4R)-3-fluoro-4-(4-hydroxyphenyl)-piperidin-1-yl)pyrrolidin-2-one], the inhibition constant (Ki) turned out to be 23 nM.

On to `Cc1ccccc1CN1CCC(N2CC[C@@H](c3ccc(O)cc3)[C@H](F)C2)C1=O` (stereo partly drawn) [Example 59, 3-((3S,4S)-3-Fluoro-4-(4-hydroxyphenyl)piperidin-1-yl)-1-(2-methylbenzyl)pyrrolidin-2-one], for which the inhibition constant (Ki) was 81 nM.

With `O=C1[C@@H](N2CC[C@H](c3ccc(O)cc3)[C@@H](F)C2)CCN1Cc1ccc(Cl)c(F)c1` [Example 82, (S)-1-(4-Chloro-3-fluorobenzyl)-3-((3R,4R)-3-fluoro-4-(4-hydroxyphenyl)piperidin-1-yl)pyrrolidin-2-one], the Ki amounted to 860 nM.

For the molecule `O=C1C(N2CC(c3ccc(O)cc3)C2)CCN1Cc1ccccc1` (stereo not shown) [Example 16, 1-Benzyl-3-(3-(4-hydroxyphenyl)azetidin-1-yl)pyrrolidin-2-one], the inhibitory constant (Ki) is 560 nM.

On to `O=C1C(N2CCC(c3ccc(O)cc3)CC2)CCN1Cc1ccc(F)c(F)c1` (racemic) [Example 5, 1-(3,4-Difluorobenzyl)-3-(4-(4-hydroxyphenyl)piperidin-1-yl)pyrrolidin-2-one], for which the Ki turned out to be 4.4 nM.

Consider `O=C1C(N2CCC(c3ccc(O)cc3)CC2)CCCN1Cc1ccccc1` (single isomer, unassigned) [Example 41b, 1′-Benzyl-4-(4-hydroxyphenyl)-[1,3′-bipiperidin]-2′-one], for which the Ki was determined as 200 nM.

Turning to `O=C1[C@H](N2CC[C@@H](c3ccc(O)cc3)[C@H](F)C2)CCN1Cc1ccc(C(F)(F)F)cc1` [Example 72, (R)-3-((3S,4S)-3-Fluoro-4-(4-hydroxyphenyl)piperidin-1-yl)-1-(4-(trifluoromethyl)benzyl)-pyrrolidin-2-one], the Ki stood at 6 nM.

As for `C[C@@H](c1ccccc1)N1CCC(N2CC[C@@H](c3ccc(O)cc3)[C@H](F)C2)C1=O` (stereo partly drawn) [Example 68, 3-((3S,4S)-3-Fluoro-4-(4-hydroxyphenyl)piperidin-1-yl)-1-(1-phenylethyl)pyrrolidin-2-one], the inhibition constant (Ki) is 710 nM.

As for `Cc1ccc(CN2CC[C@@H](N3CC(c4ccc(O)cc4)C3)C2=O)cc1` [Example 28b, (R)-3-(3-(4-Hydroxyphenyl)azetidin-1-yl)-1-(4-methylbenzyl)-pyrrolidin-2-one], the Ki stood at 10 nM.

As to `O=C1[C@@H](N2CC[C@H](c3ccc(O)cc3)[C@@H](F)C2)CCN1Cc1ccc(C(F)(F)F)cc1` [Example 87, (S)-3-((3R,4R)-3-Fluoro-4-(4-hydroxyphenyl)piperidin-1-yl)-1-(4-(trifluoromethyl)benzyl)-pyrrolidin-2-one], the inhibition constant (Ki) amounted to 540 nM.

For `Cc1ccc(N2CC[C@@H](N3CC[C@H](c4ccc(O)cc4)[C@@H](F)C3)C2=O)cc1F` [Example 49, P-2, (R)-3-((3R,4R)-3-fluoro-4-(4-hydroxyphenyl)piperidin-1-yl)-1-(3-fluoro-4-methylphenyl)pyrrolidin-2-one], the inhibition constant Ki amounted to 73 nM.

For `O=C1C(N2CCC(c3ccc(O)cc3)C(F)(F)C2)CCN1Cc1ccccc1` (single isomer, unassigned) [Example 91, P-1, 1-Benzyl-3-(3,3-difluoro-4-(4-hydroxyphenyl)piperidin-1-yl)pyrrolidin-2-one], the Ki was determined as 76 nM.

As to `O=C1[C@H](N2CCC(c3ccc(O)cc3)CC2)CCN1Cc1ccc(F)c(F)c1` [Example 6b, (R)-1-(3,4-Difluorobenzyl)-3-(4-(4-hydroxyphenyl)piperidin-1-yl)pyrrolidin-2-one], the Ki is 4.7 nM.

Consider `C[C@@H](c1ccc(F)cc1)N1CC[C@H](N2CC[C@@H](c3ccc(O)cc3)[C@H](F)C2)C1=O` [Example 50, P-3, (S)-3-((3S,4S)-3-Fluoro-4-(4-hydroxyphenyl)piperidin-1-yl)-1-((S)-1-(4-fluorophenyl)ethyl)pyrrolidin-2-one], for which the Ki was not below 5000 nM.

As to `Cc1ccc(CN2CC[C@@H](N3CC[C@@H](c4ccc(O)c(F)c4)[C@H](F)C3)C2=O)cc1F` [Example 45, P-2, (R)-3-((3S,4S)-3-fluoro-4-(3-fluoro-4-hydroxyphenyl)piperidin-1-yl)-1-(3-fluoro-4-methylbenzyl)pyrrolidin-2-one], the Ki was found to be 3.1 nM.

In the case of `O=C1[C@H](N2CCC(c3ccc(O)cc3)C(F)(F)C2)CCN1Cc1ccc(Cl)cc1` (stereo partly drawn) [Example 95, P-2, (3R)-1-(4-Chlorobenzyl)-3-(3,3-difluoro-4-(4-hydroxyphenyl)piperidin-1-yl)pyrrolidin-2-one], the inhibitory constant (Ki) came out at 12 nM.

Turning to `O=C1C(N2CC[C@@H](c3ccc(O)cc3)[C@H](F)C2)CCN1Cc1ccc(F)c(F)c1` (stereo partly drawn) [Example 69, 1-(3,4-Difluorobenzyl)-3-((3S,4S)-3-fluoro-4-(4-hydroxyphenyl)piperidin-1-yl)pyrrolidin-2-one], the inhibition constant Ki was found to be 34 nM.

Turning to `Cc1ccc(CN2CC[C@@H](N3CC[C@H](c4ccc(O)c(F)c4)[C@@H](F)C3)C2=O)cc1F` [Example 45, P-4, (R)-3-((3R,4R)-3-fluoro-4-(3-fluoro-4-hydroxyphenyl)piperidin-1-yl)-1-(3-fluoro-4-methylbenzyl)pyrrolidin-2-one], the Ki turned out to be 2.5 nM.

On to `C[C@@H](c1ccc(F)cc1)N1CC[C@H](N2CC[C@H](c3ccc(O)cc3)[C@@H](F)C2)C1=O` [Example 50, P-1, (S)-3-((3R,4R)-3-Fluoro-4-(4-hydroxyphenyl)piperidin-1-yl)-1-((S)-1-(4-fluorophenyl)-ethyl)pyrrolidin-2-one], for which the Ki is not below 5000 nM.

As for `O=C1[C@H](N2CC[C@@H](c3ccc(O)cc3)[C@H](F)C2)CCN1Cc1ccc(Cl)c(F)c1` [Example 67, (R)-1-(4-Chloro-3-fluorobenzyl)-3-((3S,4S)-3-fluoro-4-(4-hydroxyphenyl)piperidin-1-yl)pyrrolidin-2-one], the Ki turned out to be 6.5 nM.

With `O=C1C(N2CC[C@@H](c3ccc(O)cc3)[C@H](F)C2)CCN1Cc1ccc(OC(F)F)cc1` (stereo partly drawn) [Example 61, 1-(4-(Difluoromethoxy)benzyl)-3-((3S,4S)-3-fluoro-4-(4-hydroxyphenyl)piperidin-1-yl)pyrrolidin-2-one], the inhibition constant Ki is 46 nM.

Consider `O=C1[C@@H](N2CCC(c3ccc(O)cc3)C(F)(F)C2)CCN1Cc1ccccc1` (stereo partly drawn) [Example 102, P-1, (3S)-1-Benzyl-3-(3,3-difluoro-4-(4-hydroxyphenyl)piperidin-1-yl)pyrrolidin-2-one], for which the Ki is 740 nM.

As to `O=C1[C@H](N2CCC(c3ccc(O)cc3)C(F)(F)C2)CCN1Cc1ccc(Cl)c(F)c1` (stereo partly drawn) [Example 96, P-2, (3R)-1-(4-Chloro-3-fluorobenzyl)-3-(3,3-difluoro-4-(4-hydroxyphenyl)piperidin-1-yl)pyrrolidin-2-one], the Ki stood at 18 nM.
